The conditions of test [1]: literature background (Egger and Reinshagen, J. Antibiotics 1976); cited from earlier work.
Test [2] has as its system Streptococcus pneumoniae 1629. The test can be described thus: Antibacterial activity, MIC against Streptococcus pneumoniae 1629. It is filed as cell-based.
Test [3] relates to Staphylococccus aureus Oxford. The test can be described thus: Antibacterial activity, MIC against Staphylococccus aureus Oxford. It is filed as cell-based, Staphylococcus aureus.

Turning to `C=C[C@]1(C)C[C@@H](OC(=O)CSc2ccccc2C(=O)O)[C@]2(C)[C@H](C)CC[C@]3(CCC(=O)[C@H]32)[C@@H](C)[C@@H]1O` [(2-carboxylato-phenylsulfanyl)-acetic acid mutilin 14-ester], the antibacterial activity result in test [1] is listed as “inferior in activity even to the parent substance pleuromutilin”. In addition, the MIC is reported as 8 micrograms per millillitre in test [2] and 0.5 micrograms per millillitre in test [3].

`C=C[C@]1(C)C[C@@H](O)[C@]2(C)[C@H](C)CC[C@]3(CCC(=O)[C@H]32)[C@@H](C)[C@@H]1O` [Mutilin]: the antibacterial activity result in test [1] is “inactive”.

As to `C=C[C@]1(C)C[C@@H](OC(=O)CO)[C@]2(C)[C@H](C)CC[C@]3(CCC(=O)[C@H]32)[C@@H](C)[C@@H]1O` [Pleuromutilin], in test [1], the antibacterial activity entry is “modest antibacterial activity”.

In the case of “(4-Carboxylato-phenylsulfanyl)-acetic acid mutilin 14-ester [Example 1]”, the MIC in test [2] is given as 0.5 micrograms per millillitre; in test [3], 0.125 micrograms per millillitre.

(Values after patent US20070167495A1, “Pleuromutilin derivatives, process for their preparation and uses thereof” (GLAXO[…] UNLIMITED, priority 2003, published 2007).)
